Measured values reported in patent US20260274814A1, “THIENYL COMPOUNDS FOR THE TREATMENT OF A CENTRAL NERVOUS SYSTEM DISEASE OR DISORDER” (Coreterra Therapeutics, Inc., priority 2023, published 2026).
Counter-ions that a name gives are not always drawn.

Test system: mice
Experiment: Neuropharmacological Assay (SmartCube): automated behavioral signature of compound-treated mice compared with a database of reference drug classes
Type: in vivo
Conditions: for AG / AN / CE / HL / MS / PS / SH / UK / AD / AP / AX: probability that activity matches this class of agents, 3.0 mg/kg i.p., 15 min before test
From the text: Neurosci. 2011 Sep. 9; 5: 103 (doi: 10.3389/fnins.2011.00103) (“Roberds”). As reported in Roberds, because psychiatric diseases generally result from disorders of cell-cell communication or circuitry, intact systems are useful in detecting improvement in disease-relevant endpoints. These endpoints are typically behavioral in nature, often requiring human observation and interpretation. To facilitate testing of multiple compounds for behavioral effects relevant to psychiatric disease, PsychoGenics, Inc. (Tarrytown, NY, “PGI”) developed SmartCube™ an automated system in which behaviors of compound-treated mice are captured by digital video and analyzed with computer algorithms. (D. Brunner et al. Drug Discov. Today 2002, 7:S107-S112). PGI Analytical Systems uses data from SmartCube™ to compare the behavioral signature of a test compound to a database of behavioral signatures obtained using a large set of diverse reference compounds. (The composition of the database as well as validation of the method is further described in Roberds). In this way, the neuropharmacological effects of a test compound can be predicted by similarity to major classes of compounds, such as antipsychotics, anxiolytics and antidepressants.
The SmartCube™ system produces an activity signature indicating the probability that the activity of the test compound at the administered dose matches a given class of neuropharmacological agents. (See, e.g., Roberds, FIGS. 2 and 3). The test compound is simultaneously compared against multiple classes of agents; thus, a separate probability is generated for each behavioral effect measured (e.g., anxiolytic activity, analgesic activity, etc.). In table 2 below, these probabilities are reported for each behavioral effect measured as described in Table 1 below.
Provided compounds were dissolved in a mixture of Pharmasolve™ (N-methyl-2-pyrrolidone), polyethylene glycol and propylene glycol, and were injected i.p. 15 min. before the behavioral test. For each compound, injections were administered at 3 different doses. For each behavioral effect measured, results for the 3.0 mg/kg dose are presented. The potency of many of the compounds in the table was also determined in the SmartCube™ system. Test compounds were routinely examined at dose levels of 0.3, 1, 3 and 10 mg per kg (mpk), although the dose range was increased or decreased, if necessary, to obtain a full dose response curve. A compound's minimal effective dose (MED) is a measure of the compound's potency. The MED was defined as the dose (in mpk) having 45% or more total activity in SmartCube. If only one dose was tested, that dose is shown in the MED column of Table 2 even though the dose is not known to be the MED.

[1] = dose having 45% or more total activity in SmartCube, i.p., if only one dose was tested, that dose is shown, hydrochloride

Cl.c1cc2c(s1)CC(N1CCCC1)CC2 (single isomer, unassigned) [Compound 18, 1-(4,5,6,7-tetrahydrobenzothiophen-6-yl)pyrrolidine hydrochloride]
MED (minimal effective dose) [1]: 0.3 mpk | AG: ND (^ <4%) | AN: ND (^ <4%) | CE: ND (^ <4%) | HL: ND (^ <4%) | MS: ND (^ <4%) | PS: ND (^ <4%) | SH: ND (^ <4%) | UK: ND (^ <4%) | AD (hydrochloride, 3 mg/kg): ++++ (≥74%) | AP (hydrochloride, 3 mg/kg): + (≥4%) | AX (hydrochloride, 3 mg/kg): ND (^ <4%)

CNC1Cc2ccsc2C1.Cl (single isomer, unassigned) [Compound 19, N-methyl-5,6-dihydro-4H-cyclopenta[b]thiophen-5-amine hydrochloride]
MED (minimal effective dose) [1]: 3.0 mpk | AG: ND (^ <4%) | AN: ND (^ <4%) | AP: + (≥4%) | HL: ND (^ <4%) | MS: ND (^ <4%) | PS: ND (^ <4%) | SH: ND (^ <4%) | AD (hydrochloride, 3 mg/kg): ++ (≥24%) | AX (hydrochloride, 3 mg/kg): ++ (≥24%) | CE (hydrochloride, 3 mg/kg): ND (^ <4%) | UK (hydrochloride, 3 mg/kg): + (≥4%)

CNC1Cc2ccsc2C1.Cl (single isomer, unassigned) [Compound 20, N-methyl-5,6-dihydro-4H-cyclopenta[b]thiophen-5-amine hydrochloride]
MED (minimal effective dose) [1]: 1.0 mpk | AG: ND (^ <4%) | AN: ND (^ <4%) | AP: + (≥4%) | HL: ND (^ <4%) | MS: ND (^ <4%) | PS: ND (^ <4%) | SH: ND (^ <4%) | AD (hydrochloride, 3 mg/kg): ++++ (≥74%) | AX (hydrochloride, 3 mg/kg): + (≥4%) | CE (hydrochloride, 3 mg/kg): + (≥4%) | UK (hydrochloride, 3 mg/kg): ND (^ <4%)

Cl.c1cc2c(s1)CC(N1CCOCC1)CC2 (single isomer, unassigned) [Compound 22, 4-(4,5,6,7-tetrahydrobenzo[b]thiophen-6-yl)morpholine hydrochloride]
minimal effective dose (Mus musculus, ip, dose having 45% or more total activity in SmartCube, i.p., if only one dose was tested, that dose is shown, read-out: MED (minimal effective dose)): > 10 mg/kg | AD: ND (^ <4%) | AG: ND (^ <4%) | AN: ND (^ <4%) | AP: ND (^ <4%) | AX: ND (^ <4%) | CE: ND (^ <4%) | HL: ND (^ <4%) | MS: ND (^ <4%) | PS: ND (^ <4%) | SH: ND (^ <4%) | UK (hydrochloride, 3 mg/kg): + (≥4%)

Cl.c1cc2c(s1)CC(N1CCOCC1)CC2 (single isomer, unassigned) [Compound 23, 4-(4,5,6,7-tetrahydrobenzo[b]thiophen-6-yl)morpholine hydrochloride]
MED (minimal effective dose) (dose having 45% or more total activity in SmartCube, i.p., if only one dose was tested, that dose is shown): >10 mpk | AD: ND (^ <4%) | AG: ND (^ <4%) | AN: ND (^ <4%) | AP: ND (^ <4%) | AX: ND (^ <4%) | CE: ND (^ <4%) | HL: ND (^ <4%) | MS: ND (^ <4%) | PS: ND (^ <4%) | SH: ND (^ <4%) | UK (hydrochloride, 3 mg/kg): ND (^ <4%)

CNC1CCCc2ccsc2C1.Cl (single isomer, unassigned) [Compound 25, N-methyl-5,6,7,8-tetrahydro-4H-cyclohepta[b]thiophen-7-amine hydrochloride]
MED (minimal effective dose) [1]: 1.0 mpk | AD: ND (^ <4%) | AG: ND (^ <4%) | AN: ND (^ <4%) | AX: ND (^ <4%) | HL: ND (^ <4%) | MS: ND (^ <4%) | PS: ND (^ <4%) | AP (hydrochloride, 3 mg/kg): ++++ (≥74%) | CE (hydrochloride, 3 mg/kg): ND (^ <4%) | SH (hydrochloride, 3 mg/kg): ND (^ <4%) | UK (hydrochloride, 3 mg/kg): ND (^ <4%)

CNC1CCCc2ccsc2C1.Cl (single isomer, unassigned) [Compound 26, N-methyl-5,6,7,8-tetrahydro-4H-cyclohepta[b]thiophen-7-amine hydrochloride]
MED (minimal effective dose) [1]: 3.0 mpk | AD: ND (^ <4%) | AG: ND (^ <4%) | AN: ND (^ <4%) | AX: ND (^ <4%) | HL: ND (^ <4%) | MS: ND (^ <4%) | PS: ND (^ <4%) | AP (hydrochloride, 3 mg/kg): ND (^ <4%) | CE (hydrochloride, 3 mg/kg): + (≥4%) | SH (hydrochloride, 3 mg/kg): + (≥4%) | UK (hydrochloride, 3 mg/kg): ++ (≥24%)

CNC1CCc2cc(C)sc2C1 (single isomer, unassigned) [Compound 28, N, 2-dimethyl-4,5,6,7-tetrahydrobenzothiophen-6-amine hydrochloride]
MED (minimal effective dose) [1]: 3.0 mpk | AG: ND (^ <4%) | AN: ND (^ <4%) | AX: ++ (≥24%) | CE: ND (^ <4%) | HL: ND (^ <4%) | MS: ND (^ <4%) | PS: ND (^ <4%) | SH: ND (^ <4%) | AD (hydrochloride, 3 mg/kg): +++ (≥49%) | AP (hydrochloride, 3 mg/kg): ND (^ <4%) | UK (hydrochloride, 3 mg/kg): ND (^ <4%)

CNC1CCc2cc(C)sc2C1 (single isomer, unassigned) [Compound 29, N, 2-dimethyl-4,5,6,7-tetrahydrobenzothiophen-6-amine hydrochloride]
MED (minimal effective dose) [1]: 1.0 mpk | AG: ND (^ <4%) | AN: ND (^ <4%) | AX: ++ (≥24%) | CE: ND (^ <4%) | HL: ND (^ <4%) | MS: ND (^ <4%) | PS: ND (^ <4%) | SH: ND (^ <4%) | AD (hydrochloride, 3 mg/kg): ND (^ <4%) | AP (hydrochloride, 3 mg/kg): +++ (≥49%) | UK (hydrochloride, 3 mg/kg): + (≥4%)

CNC1CCc2c(C)sc(C)c2C1 (single isomer, unassigned) [Compound 30, N, 1,3-trimethyl-4,5,6,7-tetrahydro-2-benzothiophen-5-amine hydrochloride]
MED (minimal effective dose) [1]: 0.3 mpk | AD: ND (^ <4%) | AG: ND (^ <4%) | AN: ND (^ <4%) | CE: ND (^ <4%) | HL: ND (^ <4%) | MS: ND (^ <4%) | PS: ND (^ <4%) | UK: ND (^ <4%) | AP (hydrochloride, 3 mg/kg): ++++ (≥74%) | AX (hydrochloride, 3 mg/kg): ND (^ <4%) | SH (hydrochloride, 3 mg/kg): + (≥4%)

CNC1CCc2c(C)sc(C)c2C1 (single isomer, unassigned) [Compound 31, N, 1,3-trimethyl-4,5,6,7-tetrahydro-2-benzothiophen-5-amine hydrochloride]
MED (minimal effective dose) [1]: 3.0 mpk | AD: ND (^ <4%) | AG: ND (^ <4%) | AN: ND (^ <4%) | CE: ND (^ <4%) | HL: ND (^ <4%) | MS: ND (^ <4%) | PS: ND (^ <4%) | UK: ND (^ <4%) | AP (hydrochloride, 3 mg/kg): +++ (≥49%) | AX (hydrochloride, 3 mg/kg): ++ (≥24%) | SH (hydrochloride, 3 mg/kg): ND (^ <4%)

CNC1CCc2c(csc2C)C1 (single isomer, unassigned) [Compound 32, N, 1-dimethyl-4,5,6,7-tetrahydro-2-benzothiophen-5-amine hydrochloride]
MED (minimal effective dose) [1]: 1.0 mpk | AD: +++ (≥49%) | AG: ND (^ <4%) | AN: ND (^ <4%) | CE: ND (^ <4%) | HL: ND (^ <4%) | MS: ND (^ <4%) | PS: ND (^ <4%) | SH: ND (^ <4%) | UK: ND (^ <4%) | AP (hydrochloride, 3 mg/kg): + (≥4%) | AX (hydrochloride, 3 mg/kg): ++ (≥24%)

CNC1CCc2c(csc2C)C1 (single isomer, unassigned) [Compound 33, N, 1-dimethyl-4,5,6,7-tetrahydro-2-benzothiophen-5-amine hydrochloride]
MED (minimal effective dose) [1]: 0.3 mpk | AD: +++ (≥49%) | AG: ND (^ <4%) | AN: ND (^ <4%) | CE: ND (^ <4%) | HL: ND (^ <4%) | MS: ND (^ <4%) | PS: ND (^ <4%) | SH: ND (^ <4%) | UK: ND (^ <4%) | AP (hydrochloride, 3 mg/kg): ++ (≥24%) | AX (hydrochloride, 3 mg/kg): ND (^ <4%)
